In patent publication US10577363B2, “Substituted piperidine compounds” (EPIZYME, INC., priority 2014, dated 2020) one finds IC50 data, which are given here for 20 compounds.

Assay [1] has as its target T1, SMYD3 (Homo sapiens (Human), UniProt Q9H7B4). Kind of assay: SMYD3 cell assay (Trimethyl-MEKK2 In-Cell Western in 293T/17 cells). The class given is cell-based. An excerpt:
Trimethyl-MEKK2-in-Cell Western Assay
MEM/Glutamax medium, Optimem Reduced Serum medium, penicillin-streptomycin, 0.05% trypsin and 1×D-PBS were purchased from Life Technologies, Grand Island, N.Y., USA. PBS-10× was purchased from Ambion, Life Technologies, Grand Island, N.Y., USA. PBS with Tween 20 (PBST (10×)) was purchased from KPL, Gaithersburg, Md., USA. Tet System FBS-approved FBS US Source was purchased from Clontech, Mountain View, Calif., USA. Odyssey blocking buffer, 800CW goat anti-rabbit IgG (H+L) antibody, 680CW Goat anti-mouse IgG (H+L) and Licor Odyssey infrared scanner were purchased from Licor Biosciences, Lincoln, Nebr., USA. Tri-methyl-Lysine [A260]-MEKK2 antibody, MEKK2 and SMYD3 plasmids were made at Epizyme. Anti-flag monoclonal mouse antibody was purchased from Sigma, St. Louis, Mo., USA. Methanol was purchased from VWR, Franklin, Mass., USA. 10% Tween 20 was purchased from KPL, Inc., Gaithersburg, Md., USA. Fugene was purchased from Promega, Madison, Wis., USA. The Biotek ELx405 was purchased from BioTek, Winooski, Vt., USA. The multidrop combi was purchased from Thermo Scientific, Waltham, Mass., USA.
Cell Treatment, in Cell Western (ICW) for Detection of Trimethyl-Lysine-MEKK2 and MEKK2.
Plasmids were prepared for delivery to cells by first mixing 1350 μL Opti-MEM with Fugene (81 μL) in a sterile Eppendorf and incubated for five minutes at room temperature (RT). […] Entire volume of Opti-MEM/Fugene mixture was then added to a microfuge tube containing DNA plasmid, mixed and then incubated×15 minutes at RT. […] Medium was then removed, and cells were washed once with PBS in the flask. Trypsin 0.05% (3 mL) was added and cells incubated for three minutes. Room temperature MEM+10% Tet system FBS was added and cells were mixed gently, and counted using the Vi-cell. Cells were seeded at 100,000 cells/mL in 50 μL MEM/10% Tet FBS/Pen/Strep to a 384 well black/clear poly-D-lysine coated plate containing test agent diluted in DMSO. The final top concentration of test compound was 40 μM. […] Plates were incubated×30 minutes at RT in low-airflow area, followed by incubation at 37° C. under 5% CO2 for 24 hours. Medium was aspirated from all wells of assay plates prior to fixation and permeabilization with ice cold (−20° C.) methanol (90 μL/well) for ten minutes. Plates were rinsed with PBS three times on BioTek ELx405. PBS was removed with a final aspiration, and Odyssey blocking buffer (50 μL/well) was added to each well and incubated for one hour at RT. Primary antibody solution was prepared (anti-trimethyl-MEKK2 at 1:600 dilution plus mouse anti-flag antibody at 1:10,000 dilution in diluent (Odyssey Blocking buffer+0.1% Tween 20)) and 20 μL per well was dispensed using the Multidrop Combi. Assay plates were then sealed with foil, and incubated overnight at 4° C. Plates were washed five times with PBS-Tween (1×) on Biotek ELx405 and blotted on paper towel to remove excess reagent.
First, the ratio for each well was determined by:
Each plate included fourteen control wells of DMSO only treatment (Minimum Inhibition) as well as fourteen control wells for maximum inhibition (Background). The average of the ratio values for each control type was calculated and used to determine the percent inhibition for each test well in the plate. Reference compound was serially diluted two-fold in DMSO for a total of nine test concentrations, beginning at 40 μM.
Percent inhibition was calculated (below).
Non-linear regression curves were generated to calculate the IC50 and dose-response relationship using triplicate wells per concentration of compound.

The target of assay [2] is T1, SMYD3. As to the kind of experiment: SMYD3 biochemical assay (SPA, 3H-SAM methylation of MEKK2 protein substrate). A digest of the protocol:
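Native full-length human SMYD3 (E. coli-expressed, tags removed) was preincubated with compound for 30 min at room temperature in 25 mM Tris-Cl pH 8.0, 1 mM TCEP, 0.005% BSG, 0.005% Tween 20. Reaction was started with 3H-SAM plus GST-MEKK2, quenched with 100 uM unlabeled SAM, and read by SPA scintillation counting.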

Setting [3] is: 293T/17 cells, read-out: SMYD3 Cell IC50 (μM)*.
[4] abbreviates: read-out: SMYD3 Biochem IC50 (μM)*.
The mark [5] stands for this setting: read-out: SMYD3 Cell IC50 (μM)*.
[6] abbreviates: Table 1A, IC50 values are an average of n = 1 to n = 50, read-out: SMYD3 Cell IC50.
[7] abbreviates: Table 2A, read-out: SMYD3 Cell IC50.
Setting [8] is: Table 2A, read-out: SMYD3 Biochem IC50.

The structures appear in SMILES notation. Structures can show the parent of a compound that is named as a salt.

T1 sequence (Q9H7B4 whole entry): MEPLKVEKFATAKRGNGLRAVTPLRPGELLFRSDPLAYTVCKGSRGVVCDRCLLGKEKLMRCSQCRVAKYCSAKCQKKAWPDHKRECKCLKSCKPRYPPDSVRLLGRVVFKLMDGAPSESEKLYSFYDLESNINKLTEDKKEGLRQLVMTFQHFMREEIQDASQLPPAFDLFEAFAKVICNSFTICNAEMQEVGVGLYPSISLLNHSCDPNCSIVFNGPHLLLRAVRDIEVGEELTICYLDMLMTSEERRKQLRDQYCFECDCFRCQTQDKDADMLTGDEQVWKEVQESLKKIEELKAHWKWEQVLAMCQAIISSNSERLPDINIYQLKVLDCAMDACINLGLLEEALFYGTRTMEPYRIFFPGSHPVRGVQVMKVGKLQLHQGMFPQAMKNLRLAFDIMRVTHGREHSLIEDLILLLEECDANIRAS

By IC50 is commonly meant the point on the concentration scale where inhibition reaches its midpoint. For the compound `C[C@H]1C[C@@H](NC(=O)c2cc(C3CC3)on2)CCN1S(=O)(=O)CC1CCNCC1` (single isomer, unassigned) [Cpd. No. 417], the IC50 at SMYD3 [1] (setting [3]) came out at 0.0508 µM; at SMYD3 [2] (setting [4]) it was 0.00307 µM.
As to `C[C@@H]1C[C@H](NC(=O)c2cc(C3CC3)on2)CCN1S(=O)(=O)CC1CCNCC1` (single isomer, unassigned) [Cpd. No. 418], the IC50 at SMYD3 [1] (setting [3]) was determined as 0.197 µM; on SMYD3 [2] (setting [4]), 0.0172 µM.
In the case of `O=C(N[C@@H]1C[C@H]2CC[C@@H](C1)N2S(=O)(=O)CCN1CCCC1)c1cc(C2CC2)on1` (single isomer, unassigned) [Cpd. No. 436], the IC50 on SMYD3 [1] (setting [3]) was 0.285 µM; on SMYD3 [2] (setting [4]) it was 0.0613 µM.
For `CC(C)c1cc(C[C@@H](CN)C(=O)N2CCC(NC(=O)c3cc(C4CC4)on3)CC2)ccc1O` [Cpd. No. 121, N-[1-[(2S)-3-amino-2-[[4-hydroxy-3-(propan-2-yl)phenyl]methyl]propanoyl]piperidin-4-yl]-5-cyclopropyl-1,2-oxazole-3-carboxamide hydrochloride salt], the concentration for half-maximal inhibition (IC50) at SMYD3 [1] (setting [5]) was 0.68 µM; on SMYD3 [2] (setting [4]) it was 0.00957 µM.
Regarding `NCCCS(=O)(=O)N1C2CCCC1CC(NC(=O)c1cc(C3CC3)on1)C2` (centres unmarked) [Cpd. No. 181, N-[9-[(3-aminopropane)sulfonyl]-9-azabicyclo[3.3.1]nonan-3-yl]-5-cyclopropyl-1,2-oxazole-3-carboxamide hydrochloride salt], the IC50 on SMYD3 [1] (setting [5]) was found to be 0.566 µM; at SMYD3 [2] (setting [4]), 0.0927 µM.
As to `C[C@H]1C[C@@H](NC(=O)c2cc(C3CC3)on2)CCN1S(=O)(=O)N1CCN(C)CC1` [Cpd. No. 279, 5-cyclopropyl-N-[(2S,4S)-2-methyl-1-(4-methylpiperazine-1-sulfonyl)piperidin-4-yl]-1,2-oxazole-3-carboxamide], the IC50 was 0.266 µM on SMYD3 [1] (setting [3]) and 0.0815 µM at SMYD3 [2] (setting [4]).
For `O=C(N[C@H]1CCN(C(=O)CC2CCNCC2)[C@@H](Cc2ccccc2)C1)c1cc(C2CC2)on1` [Cpd. No. 348, N-((2S,4S)-2-benzyl-1-(2-(piperidin-4-yl)acetyl)piperidin-4-yl)-5-cyclopropylisoxazole-3-carboxamide hydrochloride], the IC50 on SMYD3 [1] (setting [3]) amounted to 0.838 µM; at SMYD3 [2] (setting [4]) it was 0.0225 µM.
With `C[C@H]1CN(S(=O)(=O)CCCN)CC[C@H]1NC(=O)c1cc(C2CC2)on1` [Cpd. No. 386, N-((3S,4R)-1-(3-aminopropylsulfonyl)-3-methylpiperidin-4-yl)-5-cyclopropylisoxazole-3-carboxamide], the half-maximal inhibitory concentration (IC50) against SMYD3 [1] is 0.34 µM; at SMYD3 [2] (setting [4]), 0.0282 µM.
On to `C[C@@H]1CN(C(=O)[C@H]2CC[C@H](N)CC2)[C@H](C)C[C@@H]1NC(=O)c1cc(C2CC2)on1` [Cpd. No. 420, N-((2R,4S,5R)-1-((1r,4R)-4-aminocyclohexanecarbonyl)-2,5-dimethylpiperidin-4-yl)-5-cyclopropylisoxazole-3-carboxamide], for which the IC50 at SMYD3 [1] (setting [3]) stood at 0.205 µM; at SMYD3 [2] (setting [4]), 0.0113 µM.
Consider `C[C@H]1C[C@@H](NC(=O)c2cc(C3CC3)on2)CCN1S(=O)(=O)c1ccc(NCCN2CCOCC2)nc1` [Cpd. No. 458, 5-cyclopropyl-N-((2S,4S)-2-methyl-1-(6-(2-morpholinoethylamino)pyridin-3-ylsulfonyl)piperidin-4-yl)isoxazole-3-carboxamide dihydrochloride], for which the IC50 is 0.581 µM on SMYD3 [1] (setting [3]) and 0.132 µM at SMYD3 [2] (setting [4]).
`NCCCS(=O)(=O)N1[C@@H]2CC[C@H]1C[C@@H](NC(=O)c1cc(C3CC3)on1)C2` [Cpd. No. 485, N-((1S,3r,5R)-8-(3-aminopropylsulfonyl)-8-aza-bicyclo[3.2.1]octan-3-yl)-5-cyclopropylisoxazole-3-carboxamide]: the IC50 came out at 0.129 µM at SMYD3 [1] (setting [3]) and 0.00507 µM on SMYD3 [2] (setting [4]).
`C[C@H]1C[C@@H](NC(=O)c2cc(C3CC3)on2)CCN1S(=O)(=O)CCCNCc1ccccc1` [Cpd. No. 500, N-((2S,4S)-1-(3-(benzylamino)propylsulfonyl)-2-methylpiperidin-4-yl)-5-cyclopropylisoxazole-3-carboxamide]: the half-maximal inhibitory concentration (IC50) on SMYD3 [1] (setting [6]) came to 0.106 µM; on SMYD3 [2] (Table 1A, IC50 values are an average of n = 1 to n = 50, read-out: SMYD3 Biochem IC50), 0.00813 µM.
Regarding `O=C(N[C@H]1C[C@H]2CC[C@@H](C1)N2S(=O)(=O)CC1CCN(CCCC(F)(F)F)CC1)c1cc(C2CC2)on1` [Cpd. No. 528, 5-cyclopropyl-N-[(1R,3r,5S)-8-([[1-(4,4,4-trifluorobutyl)piperidin-4-yl]methane]sulfonyl)-8-azabicyclo[3.2.1]octan-3-yl]-1,2-oxazole-3-carboxamide], the IC50 stood at 0.0231 µM at SMYD3 [1] (setting [7]) and 0.0006 µM on SMYD3 [2] (setting [8]).
Consider `C[C@H]1C[C@@H](NC(=O)c2cc(C3CC3)on2)CCN1S(=O)(=O)N1CCC(N)CC1` [Cpd. No. 529, N-((2S,4S)-1-(4-aminopiperidin-1-ylsulfonyl)-2-methylpiperidin-4-yl)-5-cyclopropylisoxazole-3-carboxamide trifluoroacetic acid], for which the IC50 was determined as 0.0152 µM on SMYD3 [1] (setting [7]) and 0.0008 µM at SMYD3 [2] (setting [8]).
`NC1CCN(S(=O)(=O)N2[C@@H]3CC[C@H]2C[C@@H](NC(=O)c2cc(C4CC4)on2)C3)CC1` [Cpd. No. 532, N-((1R,3r,5S)-8-(4-aminopiperidin-1-ylsulfonyl)-8-aza-bicyclo[3.2.1]octan-3-yl)-5-cyclopropylisoxazole-3-carboxamide hydrochloride]: the IC50 on SMYD3 [1] (setting [7]) came to 0.0214 µM; at SMYD3 [2] (setting [8]), 0.0009 µM.
On the same counts, the results for `C[C@H]1C[C@@H](NC(=O)c2cc(C3CC3)on2)CCN1S(=O)(=O)c1ccc(C(C)(C)N)cc1` [Cpd. No. 541, N-((2S,4S)-1-(4-(2-aminopropan-2-yl)phenylsulfonyl)-2-methylpiperidin-4-yl)-5-cyclopropylisoxazole-3-carboxamide] are 0.0259 µM and 0.0014 µM.
In the case of `O=C(N[C@H]1C[C@H]2CC[C@@H](C1)N2S(=O)(=O)CC1CCNCC1)c1cc(C2CC2)on1` [Cpd. No. 543, 5-cyclopropyl-N-((1R,3r,5S)-8-(piperidin-4-ylmethylsulfonyl)-8-aza-bicyclo [3.2.1]octan-3-yl) isoxazole-3-carboxamide], the IC50 on SMYD3 [1] (setting [7]) was determined as 0.0445 µM; on SMYD3 [2] (setting [8]) it was 0.0018 µM.
In the case of `O=C(N[C@H]1C[C@H]2CC[C@@H](C1)N2S(=O)(=O)N1CC2(CCNCC2)C1)c1cc(C2CC2)on1` [Cpd. No. 559, N-((1R,3r,5S)-8-(2,7-diazaspiro[3.5]nonan-2-ylsulfonyl)-8-azabicyclo[3.2.1]octan-3-yl)-5-cyclopropylisoxazole-3-carboxamide 2,2,2-trifluoroacetate], the values for the IC50 on SMYD3 [1] (setting [7]) and at SMYD3 [2] (setting [8]) were 0.0319 µM and 0.0047 µM, respectively.
As to `CC(C)[C@H]1C[C@@H](NC(=O)c2cc(C3CC3)on2)CCN1S(=O)(=O)CCCN` [compound 501, N-((2R,4S)-1-((3-aminopropyl)sulfonyl)-2-isopropylpiperidin-4-yl)-5-cyclopropylisoxazole-3-carboxamide], the IC50 on SMYD3 [1] (setting [6]) came to 4.49 µM.
Take `C[C@@H]1CN(S(=O)(=O)CCCNCc2ccccc2)[C@H](C)C[C@@H]1NC(=O)c1cc(C2CC2)on1` [compound 681, N-((2R,4S,5R)-1-((3-(benzylamino)propyl)sulfonyl)-2,5-dimethylpiperidin-4-yl)-5-cyclopropylisoxazole-3-carboxamide]: the IC50 at SMYD3 [1] (average of n = 1 to n = 50, read-out: SMYD3 Cell IC50) amounted to 0.93 µM.
